Data set [1] in a line: Fe^2+ chelation assay. In kind it is biochemical. The procedure: The protocol used for assessing Fe^2+ chelating capacity of the compounds was adapted from a report of Benzie and Strain and previously reported by our group. The iron(II) chelation ability of compounds was calculated using Equation (7):(7) iron chelation (%)=control absorbance−sample absorbance/control absorbance×100
The chelating potential for the ferrous ions of the new compounds was determined, based on their competition for Fe^2+ with ferrozine.

A short description of data set [2]: Cyclic voltammetry of the compounds on graphite-based SPE. In kind it is physicochemical. Particulars: CV, 0.1 M HClO4, graphite-based SPE. As for the experimental part:
The evaluated compounds’ stock solutions used were prepared at a concentration of 5 mM. To test their redox properties, dilutions of 0.5 mM and 2 mM were prepared in 0.1 M HClO4 electrolyte (pH = 1.2). Screen-printed electrodes (SPEs; Metrohm DropSens, Oviedo, Spain) (planar electrodes) with graphite and gold working electrodes were used. Cyclic voltammetry (CV) and differential pulse voltammetry (DPV) were the electrochemical methods applied. The experimental conditions for each test are mentioned near the corresponding data (Appendix A).
In Figure 2, the cyclic voltammograms (CVs) for each of the compounds considered in this study, compared individually with the voltammogram obtained in the electrolyte (0.1 M HClO4), are presented. Thus, the oxidation/reduction peaks corresponding to the electrochemical transformations suffered by each compound can be observed in the potential range considered, in an acidic environment (low pH). From Figure 3, where the voltammograms of all eight compounds were presented together, a similarity is observed between 8a and 8b, and among the other compounds, whereas 5a and 5b can be noted as having the highest oxidation signals.

For data set [3], the system named is E. coli ATCC 25922. The data set can be described thus: Antimicrobial activity, modified microdilution. In kind it is cell-based. Conditions: Escherichia coli, ATCC25922. As for the experimental part:
(§1) For evaluating the antimicrobial activity of the compounds, […] aerobic microbial strains were used: S. aureus ATCC 25923, S. pyogenes ATCC 19615, P. aeruginosa ATCC 27853, S. enterica ISM 83/37, S. typhimurium ATCC 14028, E. coli ATCC 8739, E. coli ATCC 25922, and C. albicans ATCC 102310 obtained from Food Biotechnology Laboratory, Life Sciences Institute, University of Agricultural Sciences, and Veterinary Medicine Cluj Napoca, where the experiment was performed. The antimicrobial activity of the compounds was determined using a modified microdilution technique, and the followed protocol was previously reported.
(§2) The antimicrobial activity of the final compounds, against seven aerobic microbial strains (S. aureus ATCC 25923, S. pyogenes ATCC 19615, P. aeruginosa ATCC 27853, S. enterica ISM 83/37, S. typhimurium ATCC 14028, E. coli ATCC 8739, E. coli ATCC 25922), and a fungal strain (C. albicans ATCC 102310), was determined using a modified microdilution technique.
(§3) The results of the antimicrobial activity evaluation of the compounds, in comparison to norfloxacin and chloramphenicol used as standard antibiotics and fluconazole used as reference antifungal, are depicted in Table 10.

In data set [4] the test system is S. enterica ISM 83/37. The data set is described as follows: Antimicrobial activity, modified microdilution. In kind it is cell-based. Particulars: Salmonella enterica, ISM83/37. The procedure: as §1, §2, §3
Data set [5] deals with P. aeruginosa ATCC 27853. The data set can be described thus: Antimicrobial activity, modified microdilution. In kind it is cell-based. Conditions: Pseudomonas aeruginosa, ATCC27853. The procedure: as §1, §2, §3
Data set [6] relates to S. aureus ATCC 25923. The data set can be described thus: Antimicrobial activity, modified microdilution. Particulars: Staphylococcus aureus, ATCC25923. The class given is cell-based. As for the experimental part: as §1, §2, §3
For data set [7], the system named is E. coli ATCC 8739. The data set can be described thus: Antimicrobial activity, modified microdilution. The class given is cell-based. Conditions: Escherichia coli, ATCC8739. The procedure: as §1, §2, §3
Data set [8] deals with S. pyogenes ATCC 19615. The data set can be described thus: Antimicrobial activity, modified microdilution. In kind it is cell-based. Particulars: Streptococcus pyogenes, ATCC19615. The procedure: as §1, §2, §3
For data set [9], the system named is S. typhimurium ATCC 14028. The data set is described as follows: Antimicrobial activity, modified microdilution. In kind it is cell-based. Conditions: Salmonella enterica. The procedure:
as §1, §2, §3

The test system of data set [10] is C. albicans ATCC 102310. The data set can be described thus: Antifungal activity, modified microdilution. Conditions: Candida albicans, ATCC102310. The class given is cell-based. The procedure: as §1, §2, §3
The nature of data set [11]: TEMPO scavenging by differential pulse voltammetry. Conditions: 2 mM TEMPO, one hour incubation, 0.1 M HClO4, DPV. As for the experimental part: The antioxidant properties were evaluated in terms of their activity against some free radicals, and other compounds reported in the literature, relevant for this purpose, such as: • ferric ions (Fe^3+)—used to test the reduction of the antioxidant character of the compounds; • DPPH˙ free radical– used to test the scavenging effect of the compounds on this radical; • hydrogen peroxide (H2O2)—used to test the scavenging effect of the synthesized molecules on this compound; • 2,2,6,6-tetramethylpiperidinyl-1-oxy (TEMPO)—used to test the scavenging effect of the synthesized molecules on this compound.
TEMPO (2,2,6,6-tetramethylpiperidine-N-oxyl) is a stable organic nitroxide radical that has been reported to scavenge carbon-centered radicals.
Differential pulse voltammetry (DPV) was then applied in order to evaluate the antioxidant effectiveness of the novel compounds through their ability to scavenge the free radical species.

Data set [12] is described as follows: NO˙ radical scavenging assay (Griess reaction). The class given is biochemical. Conditions: 100 µL of test solution 1 mg/mL in DMSO, 150 min, pH 7.4. The procedure: Scavenging of the NO˙ radical was performed according to some adapted protocols reported in the literature, based on the nitroprusside decomposition at physiological pH and colorimetric quantification of the resulted products using the Griess reaction.
Over 200 µL of 10 mM sodium nitroprusside, 100 µL of test solutions (1 mg/mL in DMSO), and 400 µL phosphate-buffered saline (PBS, pH = 7.4) were added. The mixture was then incubated at room temperature for 150 min on a rotating shaker (GFL Gesellschaft für Labortechnik, Burgwedel, Germany). After that, 1 mL of sulfanilic acid 0.33% in 20% acetic acid was added and after 5 min, 1 mL of naphthylethylenediamine […] 0.1% was added to all test tubes. After 30 min, the absorbance of the sample, given by the chromophore (azo dye) formed during the diazotization of nitrite ions resulting from decomposition of sodium nitroprusside with sulfanilic acid and coupled with naphthylethylenediamine, was measured at 546 nm. The NO˙ radical scavenging activity of the tested compounds was calculated using Equation (3):(3) NO˙ scavenging (%)=control absorbance−sample absorbance/control absorbance×100

Read-outs that look alike come from different tables or passages of the source.

Regarding `C/C(=N\Nc1nc(C)cs1)c1ccc(O)cc1O` [Compound 5a, Dihydroxy-Phenyl-Thiazol-Hydrazinium chloride], the “Chelation Capacity (%), ferrous ions” value in [1] (150 µg/mL) is 11.17%; in [1] (200 µg/mL) it was 21.69%. Moreover, the “Ered (V)” value was −0.075 V in data set [2] (1st reduction peak) and 0.256 V in data set [2] (3rd reduction peak). For the same compound, the “Ired (μA)” value in [2] (1st reduction peak) is −6.62 μA; in [2] (3rd reduction peak), −2.17 μA. The entries for the “Eox (V)” value in data set [2] (2nd oxidation peak) and in data set [2] (3rd oxidation peak) were 0.384 V and 0.632 V, respectively. Further, the “Iox (μA)” value in data set [2] (2nd oxidation peak) amounted to 50.85 μA; in data set [2] (3rd oxidation peak) it was 19.21 μA. The minimal inhibitory concentration (MIC) is more than 100 µg/mL in [3]; more than 100 µg/mL in data set [4]; 31.2 µg/mL in data set [5]; more than 100 µg/mL in data set [6]; more than 100 µg/mL in data set [7]; more than 100 µg/mL in data set [8]. The MIC in data set [9] and in data set [10] was more than 100 µg/mL each time. The “oxidation signal for TEMPO after incubation with the compound” value (shortened to “oxidation signal for TEMPO”) in data set [11] was “both the signal shift to higher oxidation potentials and its decrease”. Besides, in data set [12], the “% of NO˙ Scavenged” value amounted to 36.26%.
Turning to `Cc1csc(N/N=C/c2ccc(O)cc2O)n1.Cl` [Compound 5b, (E)-2-(2,4-dihydroxybenzylidene)-1-(4-methylthiazol-2-yl)hydrazin-1-ium chloride], the “Chelation Capacity (%), ferrous ions” value in data set [1] (50 µg/mL) amounted to 1.18%; in [1] (100 µg/mL), 8.95%; in [1] (150 µg/mL), 18.42%; in data set [1] (200 µg/mL), 31.33%. In addition, the “Eox (V)” value amounted to 0.425 V in data set [2] (2nd oxidation peak) and 0.632 V in [2] (3rd oxidation peak). For the same compound, the results for the “Iox (μA)” value in data set [2] (2nd oxidation peak) and in data set [2] (3rd oxidation peak) were 69.35 μA and 5.87 μA, respectively. Also, the “Ered (V)” value was determined as 0.085 V in data set [2] (2nd reduction peak) and 0.286 V in [2] (3rd reduction peak). For the same compound, the “Ired (μA)” value is −0.68 μA in data set [2] (2nd reduction peak) and −2.86 μA in data set [2] (3rd reduction peak). For the same compound, the MIC in [3] (E. coli ATCC 25922, read-out: MIC) is more than 100 µg/mL; in [4], more than 100 µg/mL; in data set [5] (P. aeruginosa ATCC 27853, read-out: MIC) it was 31.2 µg/mL; in [6] (S. aureus ATCC 25923, read-out: MIC), more than 100 µg/mL; in [7] (E. coli ATCC 8739, read-out: MIC) it was more than 100 µg/mL; in data set [8] (S. pyogenes ATCC 19615, read-out: MIC), more than 100 µg/mL. Besides, the MIC is more than 100 µg/mL in [9] (S. typhimurium ATCC 14028, read-out: MIC) and more than 100 µg/mL in data set [10] (C. albicans ATCC 102310, read-out: MIC). The “oxidation signal for TEMPO” value in data set [11] is “both the signal shift to higher oxidation potentials and its decrease”. Besides, in data set [12], the “% of NO˙ Scavenged” value was determined as 35.63%.
For the compound `Br.C/C(=N\Nc1nc(-c2ccccc2)cs1)c1ccc(O)cc1O` [Compound 6a, (E)-2-(1-(2,4-dihydroxyphenyl)ethylidene)-1-(4-phenylthiazol-2-yl)hydrazin-1-ium bromide], the “Chelation Capacity (%), ferrous ions” value in [1] (50 µg/mL) stood at 0.07%; in data set [1] (100 µg/mL), 7.14%; in [1] (150 µg/mL), 14.50%; in [1] (200 µg/mL), 25.03%. The “Eox (V)” value was 0.298 V in [2] (1st oxidation peak), 0.418 V in data set [2] (2nd oxidation peak) and 0.621 V in data set [2] (3rd oxidation peak). In addition, the “Iox (μA)” value was 10.73 μA in data set [2] (1st oxidation peak), 22.48 μA in data set [2] (2nd oxidation peak) and 15.03 μA in data set [2] (3rd oxidation peak). In addition, the “Ered (V)” value in [2] (2nd reduction peak) was found to be 0.181 V; in data set [2] (3rd reduction peak), 0.379 V. The “Ired (μA)” value is given as −6.84 μA in data set [2] (2nd reduction peak) and −1.19 μA in data set [2] (3rd reduction peak). The MIC was more than 100 µg/mL in data set [3]; more than 100 µg/mL in data set [4]; 31.2 µg/mL in data set [5]; more than 100 µg/mL in data set [6]; more than 100 µg/mL in [7]; more than 100 µg/mL in data set [8]. Also, the MIC in data set [9] and in [10] was more than 100 µg/mL in each case. Further, in data set [11], the “oxidation signal for TEMPO” value is “does not decrease”. Further, in [12], the “% of NO˙ Scavenged” value is 20.58%.
Regarding `Br.Oc1ccc(/C=N/Nc2nc(-c3ccccc3)cs2)c(O)c1` [Compound 6b, (E)-2-(2,4-dihydroxybenzylidene)-1-(4-phenylthiazol-2-yl)hydrazin-1-ium bromide], the “Chelation Capacity (%), ferrous ions” value in [1] (50 µg/mL) is listed as 0.07%; in data set [1] (100 µg/mL), 4.84%; in data set [1] (150 µg/mL), 13.39%; in data set [1] (200 µg/mL) it was 22.27%. Also, the entries for the “Eox (V)” value in [2] (1st oxidation peak) and in data set [2] (2nd oxidation peak) were 0.296 V and 0.467 V, respectively. Further, the “Iox (μA)” value was determined as 5.28 μA in [2] (1st oxidation peak) and 44.99 μA in data set [2] (2nd oxidation peak). For the same compound, the “Ered (V)” value in data set [2] (1st reduction peak) is given as −0.08 V; in data set [2] (2nd reduction peak), 0.070 V; in data set [2] (3rd reduction peak) it was 0.401 V. Also, the “Ired (μA)” value in [2] (1st reduction peak) was −2.22 μA; in [2] (2nd reduction peak) it was −1.49 μA; in data set [2] (3rd reduction peak), −5.91 μA. Besides, the MIC in data set [3], in [4], in data set [5], in data set [6], in data set [7] and in data set [8] was more than 100 µg/mL in each case. In addition, the minimum inhibitory concentration (MIC) is more than 100 µg/mL in data set [9] and 62.5 µg/mL in data set [10]. The “oxidation signal for TEMPO” value in data set [11] is given as “does not decrease”. The “% of NO˙ Scavenged” value in data set [12] worked out at 28.35%.
